In ChEMBL document CHEMBL5143512, “Synthesis and in vitro antitrypanosomal evaluation of novel 6-heteroarylidene-substituted quinolone derivatives” (Eur J Med Chem, 2022):

What was measured:
[1] = test system: Trypanosoma brucei brucei; test: Antitrypanosomal activity against Trypanosoma brucei brucei 427 trypomastigotes assessed as reduction in parasite growth incubated for 48 hrs by resazurin dye based fluorescence assay; format: functional, organism-based; conditions: Trypanosoma brucei, 427, 48 h
[2] = Cytotoxicity against human hTERT-BJ cells assessed as cell viability at 1 uM incubated for 48 hrs by MTT based colorimetric assay; format: toxicity; conditions: read-out: Activity
[3] = Selectivity index, ratio of CC50 for African green monkey Vero cells to IC50 for Antitrypanosomal activity against Trypanosoma brucei brucei 427 trypomastigotes; format: toxicity; conditions: read-out: Ratio CC50/IC50
[4] = Cytotoxicity against African green monkey Vero cells assessed as cell viability at 10 uM incubated for 48 hrs by MTT based colorimetric assay; format: toxicity; conditions: chlorocebus sabaeus, read-out: Activity
[5] = test system: hTERT-BJ; test: Cytotoxicity against human hTERT-BJ cells assessed as reduction in cell viability at 10 uM incubated for 48 hrs by MTT based colorimetric assay; format: toxicity
[6] = Cytotoxicity against African green monkey Vero cells assessed as cell viability at 1 uM incubated for 48 hrs by MTT based colorimetric assay; format: toxicity; conditions: chlorocebus sabaeus, read-out: Activity
[7] = Cytotoxicity against African green monkey Vero cells assessed as cell viability at 5 uM incubated for 48 hrs by MTT based colorimetric assay; format: toxicity; conditions: chlorocebus sabaeus, read-out: Activity
[8] = Cytotoxicity against human hTERT-BJ cells assessed as cell viability at 10 uM incubated for 48 hrs by MTT based colorimetric assay; format: toxicity; conditions: read-out: Activity
[9] = Cytotoxicity against African green monkey Vero cells assessed as reduction in cell viability incubated for 48 hrs by MTT based colorimetric assay; format: toxicity; conditions: chlorocebus sabaeus
[10] = Cytotoxicity against human hTERT-BJ cells assessed as cell viability at 5 uM incubated for 48 hrs by MTT based colorimetric assay; format: toxicity; conditions: read-out: Activity

SMILES | IC50 [1] | also measured
O=C1/C(=C/c2ccc([N+](=O)[O-])o2)COc2ccccc21 | 0.51 µM | –
CCOC(=O)c1cn(CC)c2ccc(C(=O)/C=C/c3ccc([N+](=O)[O-])o3)cc2c1=O | 0.6 µM | –
COCCNC(=O)c1c[nH]c2ccc(C(=O)/C=C/c3ccc([N+](=O)[O-])o3)cc2c1=O | 3.43 µM | –
CCOC(=O)c1cn(CC)c2ccc(C(=O)/C=C/c3ccc(Br)o3)cc2c1=O | 1.31 µM | –
CCOC(=O)c1cn(CC(N)=O)c2ccc(C(=O)/C=C/c3ccc([N+](=O)[O-])o3)cc2c1=O | 15.3 µM | –
CCOC(=O)c1cn(CCO)c2ccc(C(=O)/C=C/c3ccc([N+](=O)[O-])o3)cc2c1=O | 2.09 µM | –
O=C1/C(=C/c2ccc([N+](=O)[O-])o2)CCc2ccccc21 | 0.36 µM | –
CCOC(=O)c1cn(CC)c2ccc(C(=O)/C=C/c3ccc([N+](=O)[O-])s3)cc2c1=O | 0.97 µM | –
Cc1cccc(Cn2cc(C(=O)NCCN3CCNCC3)c(=O)c3cc(C(=O)/C=C/c4ccc([N+](=O)[O-])o4)ccc32)c1 | 2.41 µM | –
COCCNC(=O)c1cn(Cc2ccc(C)cc2)c2ccc(C(=O)/C=C/c3ccc([N+](=O)[O-])o3)cc2c1=O | 0.12 µM | –
Cc1ccc(Cn2cc(C(=O)NCCOCCO)c(=O)c3cc(C(=O)/C=C/c4ccc([N+](=O)[O-])o4)ccc32)cc1 | 0.08 µM | viability at 48 h, 1 µM [2]: 118%; selectivity ratio [3]: 42.5; viability at 48 h, 10 µM [4]: 6%; Activity [5]: < 25%; viability at 48 h, 1 µM [6]: 105%; viability at 48 h, 5 µM [7]: 20%; viability at 48 h, 10 µM [8]: 66%; CC50 at 48 h [9]: 3.4 µM; viability at 48 h, 5 µM [10]: 88%
CCOC(=O)c1cn(CCO)c2ccc(C(=O)/C=C/c3ccc([N+](=O)[O-])s3)cc2c1=O | 0.38 µM | –
COCCNC(=O)c1cn(Cc2ccccc2)c2ccc(C(=O)/C=C/c3ccc([N+](=O)[O-])o3)cc2c1=O | 0.47 µM | –
CCOC(=O)c1cn(Cc2ccccc2)c2ccc(C(=O)/C=C/c3ccc([N+](=O)[O-])o3)cc2c1=O | 0.5 µM | –
O=C(/C=C/c1ccc([N+](=O)[O-])o1)c1ccc2c(c1)c(=O)c(C(=O)NCCOCCO)cn2Cc1ccccc1 | 0.28 µM | –
CC(=O)c1ccc2c(c1)c(=O)c(C(=O)NCCOCCO)cn2Cc1ccc(Br)cc1 | 7.14 µM | –
N=C(N)c1ccc(OCCCCCOc2ccc(C(=N)N)cc2)cc1 [PENTAMIDINE] | 0.01 µM | –
